The target in assay [1] is Protein kinase C delta type (Homo sapiens, UniProt Q05655). As to the kind of experiment: Displacement of [3H]PDBu from Protein kinase C delta. A general note: In a radioligand displacement assay an active substance lowers the binding of a labelled ligand.
For assay [2], the system named is HL-60. As to the kind of experiment: Effective dose required to […] the differentiation to monocytes of HL-60 cells. It is filed as functional. Particulars: Homo sapiens, read-out: ED50 (the source's name).
Assay [3] has as its system HL-60. As to the kind of experiment: Effective dose required to […] the differentiation to monocytes of HL-60 cells; Weaker activity. The following applies: Homo sapiens, read-out: ED50 (the source's name). It is filed as functional.
In assay [4] the test system is HL-60. As to the kind of experiment: Effective dose required to […] the differentiation to monocytes of HL-60 cells; Inactive. It is filed as functional. Particulars: Homo sapiens, read-out: ED50 (the source's name).

Chain of Protein kinase C delta type (Q05655 whole entry): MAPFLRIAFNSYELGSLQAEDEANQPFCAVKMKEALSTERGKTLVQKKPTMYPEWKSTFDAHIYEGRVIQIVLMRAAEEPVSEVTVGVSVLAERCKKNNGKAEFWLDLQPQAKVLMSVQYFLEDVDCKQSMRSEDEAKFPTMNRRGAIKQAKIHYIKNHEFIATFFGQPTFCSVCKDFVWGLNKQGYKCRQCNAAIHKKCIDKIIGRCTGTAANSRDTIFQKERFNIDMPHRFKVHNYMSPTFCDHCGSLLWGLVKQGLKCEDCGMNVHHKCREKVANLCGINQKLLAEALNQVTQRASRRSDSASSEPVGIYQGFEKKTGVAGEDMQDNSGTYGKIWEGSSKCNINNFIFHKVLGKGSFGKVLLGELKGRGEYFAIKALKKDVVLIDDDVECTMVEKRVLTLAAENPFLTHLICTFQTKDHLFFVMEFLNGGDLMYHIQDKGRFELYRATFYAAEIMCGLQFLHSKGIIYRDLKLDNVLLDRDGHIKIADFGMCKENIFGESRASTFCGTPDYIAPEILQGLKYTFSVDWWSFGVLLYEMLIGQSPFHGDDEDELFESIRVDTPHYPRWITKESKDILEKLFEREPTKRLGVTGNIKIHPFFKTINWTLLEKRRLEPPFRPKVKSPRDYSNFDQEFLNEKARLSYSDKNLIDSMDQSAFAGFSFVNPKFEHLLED

In general, Ki refers to a dissociation constant, usually derived from enzyme kinetics or from competition with a known ligand. A lower Ki goes with a stronger hold on the target. Molecule `CCCCCCCCCCCCCCN1C[C@@H](CO)NC(=O)[C@@H]1C(C)C` displayed a Ki in assay [1] of 0.29 µM. In addition, the EC50 in assay [2] amounted to 0.2 µM. In assay [1], `CCCCCCCCCCCCCCN1C[C@H](CO)NC(=O)[C@@H]1C(C)C` returned a Ki of 2.7 µM. Besides, the EC50 in assay [3] worked out at 1 µM. Molecule `CCCCCCCCCCCCCCN1C[C@@H](CO)NC(=O)[C@H]1C(C)C` showed a Ki in assay [1] of 6.5 µM. For `CCCCCCCCCCCCCCN1C[C@H](CO)NC(=O)[C@H]1C(C)C`, in assay [1], the Ki was 12 µM. In assay [4], the EC50 is > 5 µM.

Source of the values: ChEMBL document CHEMBL1129805, “Novel conformationally constrained analogues of diacylglycerol. Protein kinase C binding affinity of simplified compounds based on a 6-membered lactam moiety” (Bioorg Med Chem Lett, 1997).
